Results as given in article PMC7571155, “Design, Synthesis and Biological Investigation of Flavone Derivatives as Potential Multi-Receptor Atypical Antipsychotics” (Molecules, 2020).
Where two headings read alike, the source gives them in different places.

Assays:
5-HT2A receptor = 5-HT2A receptor (Rattus norvegicus, UniProt P14842); assay: 5-HT2A receptor radioligand binding (3H-ketanserin); settings: rat brain cortex, 3H-ketanserin, mean ± SEM of three experiments
D2 receptor = D2 receptor (Rattus norvegicus, UniProt P61169); assay: D2 receptor radioligand binding (3H-spiperone); settings: 3H-spiperone, mean ± SEM of three experiments
D2L receptor = molecular target: T1, D2L receptor (Homo sapiens, UniProt P14416); assay: Intrinsic activity, FLIPR calcium assay, HEK293/D2L; format: cell-based
T1 construct: expressed in transfected cells; host or cells: HEK293

[1] = read-out: Receptor Affinity Ki ± SEM 5-HT2A
[2] = read-out: Receptor Affinity Ki ± SEM D2, rat striatum
[3] = Receptor Affinity Ki ± SEM 5-HT2A
[4] = Receptor Affinity Ki ± SEM D2, rat striatum

Chain of 5-HT2A receptor (P14842 whole entry): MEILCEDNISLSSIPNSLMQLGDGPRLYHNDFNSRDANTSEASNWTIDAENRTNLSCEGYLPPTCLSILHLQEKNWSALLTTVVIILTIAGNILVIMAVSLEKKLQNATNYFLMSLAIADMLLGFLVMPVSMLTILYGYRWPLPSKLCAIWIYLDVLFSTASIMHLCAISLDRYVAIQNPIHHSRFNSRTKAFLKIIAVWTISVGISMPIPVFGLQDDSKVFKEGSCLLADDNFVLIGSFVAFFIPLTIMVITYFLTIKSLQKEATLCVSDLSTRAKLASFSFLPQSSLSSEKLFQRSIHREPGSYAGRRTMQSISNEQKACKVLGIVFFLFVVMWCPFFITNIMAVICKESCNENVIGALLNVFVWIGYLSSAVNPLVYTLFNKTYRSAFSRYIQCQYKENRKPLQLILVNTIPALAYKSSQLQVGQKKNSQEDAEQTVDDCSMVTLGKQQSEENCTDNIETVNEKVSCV
T1 sequence (P14416 whole entry): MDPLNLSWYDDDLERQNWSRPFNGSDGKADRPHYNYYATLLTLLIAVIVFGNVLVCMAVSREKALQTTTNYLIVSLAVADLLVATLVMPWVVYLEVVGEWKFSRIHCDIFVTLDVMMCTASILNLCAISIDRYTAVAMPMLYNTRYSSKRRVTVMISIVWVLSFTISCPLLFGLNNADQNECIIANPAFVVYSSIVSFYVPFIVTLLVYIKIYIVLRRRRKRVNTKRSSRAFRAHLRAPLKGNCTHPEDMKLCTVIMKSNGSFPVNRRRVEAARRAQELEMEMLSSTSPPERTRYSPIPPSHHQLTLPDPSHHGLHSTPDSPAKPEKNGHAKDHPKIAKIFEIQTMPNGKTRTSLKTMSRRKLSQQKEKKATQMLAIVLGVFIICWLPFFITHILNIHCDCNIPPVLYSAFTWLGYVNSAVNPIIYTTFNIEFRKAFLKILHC
Chain of D2 receptor (P61169 whole entry): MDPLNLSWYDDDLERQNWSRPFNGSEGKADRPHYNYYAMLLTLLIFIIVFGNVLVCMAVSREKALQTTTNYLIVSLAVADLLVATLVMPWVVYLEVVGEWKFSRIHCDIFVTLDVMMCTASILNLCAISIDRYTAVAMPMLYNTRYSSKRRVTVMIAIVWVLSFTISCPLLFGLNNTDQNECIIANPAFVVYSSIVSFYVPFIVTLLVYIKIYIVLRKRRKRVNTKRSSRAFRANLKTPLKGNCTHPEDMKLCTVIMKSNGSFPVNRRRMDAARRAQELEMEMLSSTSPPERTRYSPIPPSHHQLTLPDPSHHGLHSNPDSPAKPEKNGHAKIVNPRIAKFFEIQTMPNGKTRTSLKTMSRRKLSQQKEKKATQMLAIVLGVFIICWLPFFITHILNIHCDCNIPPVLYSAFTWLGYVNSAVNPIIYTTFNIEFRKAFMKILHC

Compound	Ki (5-HT2A receptor; [3]) [nM]	Ki (D2 receptor; [4]) [nM]	melting point [°C]	other results
7-(4-(4-(6-Fluorobenzo[d]isoxazol-3-yl)piperidin-1-yl)butoxy)-5-methylchroman-4-one [Compound 13b]				Ki (5-HT2A receptor; [1]): 10.5 ± 1.3 nM; Ki (D2 receptor; [2]): 28.9 ± 3.4 nM
7-(4-(4-(6-Fluorobenzo[d]isoxazol-3-yl)piperidin-1-yl)butoxy)-8-methylchroman-4-one [Compound 13d]				Ki (5-HT2A receptor; [1]): 13.7 ± 1.9 nM; Ki (D2 receptor; [2]): 22.9 ± 3.1 nM
CC1(C)CC(=O)c2ccc(OCCCCN3CCN(c4ccccc4)CC3)cc2O1 [Compound 6a, 2,2-Dimethyl-7-(4-(4-phenylpiperazin-1-yl)butoxy) chroman-4-one]	89.8 ± 11.3	553 ± 68.7	131 to 133	
CC1(C)CC(=O)c2ccc(OCCCCN3CCN(c4ccccc4F)CC3)cc2O1 [Compound 6b, 7-(4-(4-(2-Fluorophenyl)piperazin-1-yl)butoxy)-2,2-dimethylchroman-4-one]	72.5 ± 8.4	777 ± 84.7	135 to 137	
CC1(C)CC(=O)c2ccc(OCCCCN3CCN(c4cccc(C(F)(F)F)c4)CC3)cc2O1 [Compound 6c, 2,2-Dimethyl-7-(4-(4-(3-(trifluoromethyl)phenyl)piperazin-1-yl)butoxy) chroman-4-one]	147 ± 16.9	1130 ± 108	139 to 140	
COc1ccccc1N1CCN(CCCCOc2ccc3c(c2)OC(C)(C)CC3=O)CC1 [Compound 6d, 7-(4-(4-(2-Methoxyphenyl)piperazin-1-yl)butoxy)-2,2-dimethylchroman-4-one]	86.8 ± 5.6	2350 ± 317	128 to 130	
CC1(C)CC(=O)c2ccc(OCCCCN3CCN(c4ccccn4)CC3)cc2O1 [Compound 6e, 2,2-Dimethyl-7-(4-(4-(pyridin-2-yl)piperazin-1-yl)butoxy) chroman-4-one]	722 ± 64.9	4590 ± 510	127 to 129	
CC1(C)CC(=O)c2ccc(OCCCCN3CCN(c4ncccn4)CC3)cc2O1 [Compound 6f, 2,2-Dimethyl-7-(4-(4-(pyrimidin-2-yl)piperazin-1-yl)butoxy) chroman-4-one]	1140 ± 152	> 10000	128 to 131	
CC1(C)CC(=O)c2ccc(OCCCCN3CCN(Cc4ccc5c(c4)OCO5)CC3)cc2O1 [Compound 6g, 7-(4-(4-(Benzo[d] [1, 3]dioxol-5-ylmethyl)piperazin-1-yl)butoxy)-2,2-dimethylchroman-4-one]	380 ± 39.1	1140 ± 140	112 to 114	
CC1(C)CC(=O)c2ccc(OCCCCN3CCN(c4cccc5sccc45)CC3)cc2O1 [Compound 6h, 7-(4-(4-(Benzo[b]thiophen-4-yl)piperazin-1-yl)butoxy)-2,2-dimethylchroman-4-one]	55.2 ± 4.9	43.1 ± 5.7		
CC1(C)CC(=O)c2ccc(OCCCCN3CCN(c4nsc5ccccc45)CC3)cc2O1 [Compound 6i, 7-(4-(4-(Benzo[d]isothiazol-3-yl)piperazin-1-yl)butoxy)-2,2-dimethylchroman-4-one]	19.5 ± 2.2	26.2 ± 2.7	119 to 120	
COc1ccccc1N1CCN(CCCOc2ccc3c(c2)OC(C)(C)CC3=O)CC1 [Compound 6k, 7-(3-(4-(2-Methoxyphenyl)piperazin-1-yl)propoxy)-2,2-dimethylchroman-4-one]	33.1 ± 4.5	3160 ± 466	103 to 105	
CC1(C)CC(=O)c2ccc(OCCCN3CCC(c4noc5cc(F)ccc45)CC3)cc2O1 [Compound 6l, 7-(3-(4-(6-Fluorobenzo[d]isoxazol-3-yl)piperidin-1-yl)propoxy)-2,2-dimethylchroman-4-one]	6.7 ± 0.7	18.6 ± 2.3	116 to 118	
COc1ccccc1N1CCN(CCCOc2ccc3c(c2)OC2(CCCC2)CC3=O)CC1 [Compound 9a, 7-(3-(4-(2-Methoxyphenyl)piperazin-1-yl)propoxy) spiro[chromane-2,1′-cyclopentan]-4-one]	72 ± 6.8	3850 ± 328	128 to 130	
COc1ccccc1N1CCN(CCCCOc2ccc3c(c2)OC2(CCCC2)CC3=O)CC1 [Compound 9b, 7-(4-(4-(2-Methoxyphenyl)piperazin-1-yl)butoxy) spiro[chromane-2,1′-cyclopentan]-4-one]	61.7 ± 8.6	3790 ± 409	96 to 98	
O=C1CC2(CCCC2)Oc2cc(OCCCN3CCC(c4noc5cc(F)ccc45)CC3)ccc21 [Compound 9c, 7-(3-(4-(6-Fluorobenzo[d]isoxazol-3-yl)piperidin-1-yl)propoxy)spiro[chromane-2,1′-cyclopentan]-4-one]	8.3 ± 0.9	18.9 ± 2.1	91 to 93	
COc1ccccc1N1CCN(CCCOc2ccc3c(c2)OC2(CCCCC2)CC3=O)CC1 [Compound 9e, 7-(3-(4-(2-Methoxyphenyl)piperazin-1-yl)propoxy)spiro[chromane-2,1′-cyclohexan]-4-one]	93.5 ± 7.9	2050 ± 229	105 to 107	
O=C1CC2(CCCCC2)Oc2cc(OCCCN3CCN(c4ccccc4C(F)(F)F)CC3)ccc21 [Compound 9f, 7-(3-(4-(2-(Trifluoromethyl)phenyl)piperazin-1-yl)propoxy)spiro[chromane-2,1′-cyclohexan]-4-one]	76.7 ± 9.4	915 ± 90.3	138 to 140	
Cc1cccc(N2CCN(CCCCOc3ccc4c(c3)OC3(CCCCC3)CC4=O)CC2)c1C [Compound 9i, 7-(4-(4-(2,3-Dimethylphenyl)piperazin-1-yl)butoxy)spiro[chromane-2,1′-cyclohexan]-4-one]	67.5 ± 7.4	154 ± 19.6	138 to 140	
O=C1CC2(CCCCC2)Oc2cc(OCCCCN3CCN(c4cccc(Cl)c4Cl)CC3)ccc21 [Compound 9j, 7-(4-(4-(2,3-Dichlorophenyl)piperazin-1-yl)butoxy)spiro[chromane-2,1′-cyclohexan]-4-one]	35.8 ± 5.2	81.7 ± 9.7	119 to 121	
O=C1CC2(CCCCC2)Oc2cc(OCCCCN3CCC(c4nsc5ccccc45)CC3)ccc21 [Compound 9k, 7-(4-(4-(Benzo[d]isothiazol-3-yl)piperidin-1-yl)butoxy)spiro[chromane-2,1′-cyclohexan]-4-one]	75.6 ± 8.6	35.1 ± 4.7	129 to 130	
O=C1CCOc2cc(OCCCCN3CCC(c4noc5cc(F)ccc45)CC3)ccc21 [Compound 13a, 7-(4-(4-(6-Fluorobenzo[d]isoxazol-3-yl)piperidin-1-yl)butoxy)chroman-4-one]	9.6 ± 0.8	22.5 ± 2.6		
Cc1cc2c(cc1OCCCCN1CCC(c3noc4cc(F)ccc34)CC1)OCCC2=O [Compound 13c, 7-(4-(4-(6-Fluorobenzo[d]isoxazol-3-yl)piperidin-1-yl)butoxy)-6-methylchroman-4-one]	15.9 ± 2.3	25.8 ± 3.9	91 to 93	
CC1CC(=O)c2ccc(OCCCCN3CCC(c4noc5cc(F)ccc45)CC3)cc2O1 (centres unmarked) [Compound 16a, 7-(4-(4-(6-Fluorobenzo[d]isoxazol-3-yl)piperidin-1-yl)butoxy)-2-methylchroman-4–one]	7.9 ± 0.5	19.7 ± 2.7	95 to 97	
CC1CC(=O)c2ccc(OCCCCN3CCC(c4noc5cc(F)ccc45)CC3)c(Cl)c2O1 (centres unmarked) [Compound 16b, 8-Chloro-7-(4-(4-(6-fluorobenzo[d]isoxazol-3-yl)piperidin-1-yl)butoxy)-2-methylchroman-4-one]	8.1 ± 1.1	21.4 ± 2.4	99 to 101	
CC1Oc2cc(OCCCCN3CCC(c4noc5cc(F)ccc45)CC3)ccc2C(=O)C1C (centres unmarked) [Compound 21, 7-(4-(4-(6-fluorobenzo[d]isoxazol-3-yl)piperidin-1-yl)butoxy)-2,3-dimethylchroman-4-one]	2.4 ± 1.9	28.4 ± 3.2	82 to 84	
CN1CCc2cc(Cl)c(O)cc2[C@@H](c2ccccc2)C1 [SCH23390]				IC50 (D2L receptor; D2L, antagonist mode, read-out: IC50): 31.6 nM; inhibition at 10 µM (D2L receptor; HEK293, read-out: Inhibition (10 μM, %), D2L, antagonist mode, 10 μM, n = 3): 99.1 ± 3.2%
NCCc1ccc(O)c(O)c1 [dopamine]				Activation (10 μM, %) (D2L receptor; D2L, agonist mode, 10 μM, n = 3): 101.3 ± 5.3%
